Measurements as given in PubChem BioAssay (NCI).
Values joined by “and” are separate entries in the source; they are usually repeats but may differ in a detail not shown here. Identical values can stand only once.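 Method: 48-hour compound exposure of cells in 96-well plates, five concentrations, linear interpolation of endpoints. GI50 = concentration required for 50% inhibition of growth. TGI: concentration producing complete growth inhibition.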

Key:
Experiment in all cases: NCI anticancer screen, dose series, 48 h
[1] = test system: HCC-2998 colon
[2] = test system: SK-OV-3 ovarian
[3] = test system: K-562 leukemia
[4] = test system: SW-620 colon
[5] = test system: HCT-15 colon
[6] = test system: UACC-62 melanoma
[7] = test system: UACC-257 melanoma
[8] = test system: LOX IMVI melanoma
[9] = test system: PC-3 prostate
[10] = test system: SF-268 CNS

SMILES | GI50 [1] [µM] | TGI [1] | GI50 [2] [µM] | TGI [2] | GI50 [3] | TGI [3] | GI50 [4] [µM] | TGI [4] | GI50 [5] [µM] | TGI [5] | GI50 [6] [µM] | TGI [6] | GI50 [7] [µM] | TGI [7] | GI50 [8] [µM] | TGI [8] | GI50 [9] [µM] | TGI [9] | GI50 [10] | TGI [10]
CC1(C)N=C(N)N=C(N)N1c1cccc(CC(=O)Nc2ccccc2)c1 | 24 | > 100 µM | > 100 | > 100 µM | 2.87 µM | > 100 µM | 4.56 | > 100 µM | > 100 | > 100 µM | 8.3 | > 100 µM | > 100 | > 100 µM | 4.41 | > 100 µM | 0.895 | > 100 µM | 1.35 µM | > 100 µM
CC1SC(c2ccc(OCc3ccccc3)cc2)N(NC(=O)C(O)(c2ccccc2)c2ccccc2)C1=O (stereo not drawn) | 1.92 | 4.99 µM | 9.49 | 33.2 µM | 3.36 µM | > 100 µM | 3.61 | 12.7 µM | 2.74 | 12.7 µM | 3.69 | 16 µM | 7.39 | 21.3 µM | 3.87 | 14.6 µM | 2.08 | 6.85 µM | 3.66 µM | 15 µM
CC(C)OC(=O)OCOP(=O)(OCOC(=O)OC(C)C)C1CCCN(O)C1=O (stereo not drawn) | 2.07 | 44.7 µM | 1.84 | > 100 µM | 0.81 µM | > 100 µM | 1.37 | > 100 µM | 1.85 | > 100 µM | 0.704 | 3.29 µM | 49.1 | > 100 µM | 2.3 | > 100 µM | 7.55 | > 100 µM | 3.07 µM | > 100 µM
CCCN1CCCC(c2ccc(Nc3nc(Nc4cc(F)ccc4C(N)=O)c4cc[nH]c4n3)c(OC)c2)C1 (stereo not drawn) | 2.58 | 5.64 µM | 2.81 | 5.83 µM | 0.825 µM | 5.59 µM | 0.106 | 3.66 µM | 0.437 | 5.47 µM | 3.11 | 6.31 µM | 0.188 | 4.54 µM | 0.588 | 5.49 µM | 4.17 | 9.6 µM | 2.84 µM | 6.07 µM
CC(C)CC(=O)O[C@H]1C(=O)O[C@@H]2C[C@H]3[C@H](C)C(=O)C(O[C@@H]4O[C@H](CO)[C@@H](O)[C@H](O)[C@H]4O)=C[C@]3(C)[C@H]3[C@@H](O)[C@H](O)[C@]4(C(=O)O)OC[C@]32[C@@H]14 | 20.6 | 54.4 µM |  | > 100 µM | 24 µM | > 100 µM | > 100 | > 100 µM | > 100 | > 100 µM |  | > 100 µM | > 100 | > 100 µM | 38.7 | > 100 µM |  | > 100 µM | > 100 µM | > 100 µM
Cc1ccccc1C1N=C2Oc3ccccc3C=C2C(=O)N1 (stereo not drawn) | 4.69 | > 58.7 µM | 0.66 | > 100 µM | 4.01 µM | > 100 µM | 4.74 | > 100 µM | 2.05 | > 100 µM | 1.48 | > 100 µM | > 100 | > 100 µM | 30.5 | > 100 µM | 0.86 | > 100 µM | 9.2 µM | > 100 µM
O=C(/C=C/c1c[nH]c2ccccc12)c1ccccc1O |  | 27.1 µM |  | 33 µM |  | > 100 µM |  | 59.7 µM |  | 21.7 µM |  | 21 µM |  | 31.5 µM |  | 21.7 µM |  | 18.7 µM |  | 40 µM
CN1CC[C@H](N(C)C(=O)N2CC(c3cc(F)ccc3F)=C[C@@]2(CO)c2ccccc2)[C@H](F)C1 | 0.037 | 13.4 µM | 0.00588 | > 100 µM | 0.00744 µM | > 100 µM | 0.00854 | > 100 µM | 0.00418 | > 100 µM | 0.0386 | 25 µM |  | 41.4 µM | 0.0415 | > 100 µM | 0.0409 | > 100 µM | 0.0279 µM | > 100 µM
CCn1nc(C#Cc2c(C)ccc3c(Nc4ccc(Cl)cc4)nccc23)c2c(N)ncnc21 | 7.57 | > 100 µM | 4.38 | > 100 µM | 2.18 µM | > 100 µM | 2.99 | > 100 µM | 3.46 | > 100 µM | 1.6 | 9.1 µM | 3.54 | 38.7 µM | 1.81 | > 100 µM | 3.03 | > 100 µM | 5.36 µM | > 100 µM
O=C(/C=C/c1ccccc1)c1ccccn1 |  | 26.7 µM and 35.8 µM |  | 67 µM and > 100 µM | 4.36 µM and 21.6 µM | 36.6 µM and > 100 µM |  | 58.9 µM and > 100 µM |  | 24.9 µM and 50 µM |  | 36.8 µM and 41.4 µM |  | 26.9 µM and 32.3 µM |  | 23.9 µM and 34.8 µM |  | 47.3 µM and 41.3 µM | 18.8 µM and 2.66 µM | 49.8 µM and 43.9 µM
CCN(CC)CCCC(C)Nc1ccnc2cc(OC)ccc12 (stereo not drawn) | 14.7 | 28.4 µM | 24.9 | 52.3 µM | 33.7 µM | > 100 µM | 23.7 | 58.2 µM | 37.5 | > 100 µM | 19.5 | 37.7 µM | 18.2 | 34.2 µM | 29.5 | > 100 µM | 5.77 | 21.8 µM | > 100 µM | > 100 µM
COc1cccc(-c2cc(-c3ccc(Nc4nc(Nc5ccc(Cl)cc5)nc(Nc5ccc(Cl)cc5)n4)cc3)nc(N)c2C#N)c1 | 2.11 | 5.54 µM | 24.9 | > 63.9 µM | 1.52 µM | 5.53 µM | 2.41 | 5.64 µM | 2.46 | > 24.2 µM | 14.6 | 37.8 µM | 2.03 | 4.8 µM | 2.22 | 6.44 µM | 2.01 | 12 µM | 2.94 µM | 10.2 µM
N#CCC1CCN(c2nc(Nc3ccc(N4CCC(O)CC4)cc3)c3c(=O)[nH]ncc3n2)CC1 | 1.71 | > 100 µM | 0.267 | 1.88 µM | 1.51 µM | > 100 µM | 0.443 | > 100 µM | 0.428 | > 100 µM | > 100 | > 100 µM | > 100 | > 100 µM | 0.489 | > 100 µM | > 100 | > 100 µM | 1.2 µM | > 100 µM
COc1cc(C(=O)N[C@@H]2CCCN(C)C2)ccc1Nc1ncc2c(n1)N(C1CCCC1)CC(C)(C)C(=O)N2C | 0.0498 | 14.7 µM | 0.0484 | 2.42 µM | 0.0378 µM | 3.19 µM | 0.0347 | 16.7 µM | 0.38 | 14 µM | 0.153 | 15.5 µM | 0.285 | 2.63 µM | 0.0541 | 1.87 µM | 0.0646 | 19.9 µM | 0.588 µM | 20.1 µM
C=C(C)[C@@H]1CC[C@]2(C(=O)OC)CC[C@]3(C)[C@H](CC[C@@H]4[C@@]5(C)CC/C(=N\OCCC(=NCCC#N)NOCCC#N)C(C)(C)[C@@H]5CC[C@]43C)[C@@H]12 | 13.8 | > 50 µM | 10.8 | > 50 µM | 2.23 µM | > 50 µM | 4.45 | > 50 µM | 5.77 | > 50 µM | 2.32 | 12.6 µM | 5.35 | > 50 µM | 4.32 | 10.4 µM | 2.26 | > 50 µM | 11.4 µM | > 50 µM
OC1(c2ccccc2)c2ccccc2N(c2ccccc2)c2ccc(Cl)cc21 (stereo not drawn) | 0.258 | 0.795 µM | 0.608 | 1.39 µM | 0.18 µM | 1.14 µM | 0.197 | 0.491 µM | 0.424 | 1.86 µM | 0.195 | 0.452 µM | 0.201 | 0.72 µM | 0.179 | 0.348 µM | 0.303 | 1.23 µM | 0.311 µM | 1.14 µM
CC(C)c1c(C(=O)Nc2ccccc2)c(-c2ccccc2)c(-c2ccc(F)cc2)n1CC[C@@H](O)C[C@@H](O)CC(=O)O | 27.4 | > 71.5 µM | 63.7 | > 100 µM | 31.2 µM | > 100 µM | 22.2 | > 100 µM | 7.69 | > 100 µM | 6.59 | 51.5 µM | 41.5 | > 100 µM | 3.11 | 22.9 µM | 7.31 | > 100 µM | 6.64 µM | > 100 µM
FC(F)(F)c1ccc(-c2cnc(-c3nn[nH]n3)nc2NC2CCCCCC2)cc1 | > 10 | > 10 µM | > 10 | > 10 µM | > 10 µM | > 10 µM | > 10 | > 10 µM | > 10 | > 10 µM | > 10 | > 10 µM | > 10 | > 10 µM | > 10 | > 10 µM | > 10 | > 10 µM | > 10 µM | > 10 µM
C=C1C(=O)O[C@H]2[C@H]1CC/C(COC(=O)NCc1ccc(Cn3c(=O)sn(CCCI)c3=O)cc1)=C\CC[C@@]1(C)O[C@@H]21 | 1.96 | 3.71 µM | 13.6 | 28.3 µM | 0.342 µM | > 100 µM | 1.4 | 3.17 µM | 1.89 | 3.68 µM | 1.41 | 2.88 µM | 1.79 | 3.67 µM | 1.4 | 2.81 µM | 1.94 | 4.4 µM | 2.54 µM | 7.41 µM
CNC(=S)N/N=C/CSC/C=N/NC(=S)NC | > 100 | > 100 µM | > 100 | > 100 µM | 3.08 µM | > 100 µM | 41.1 | > 100 µM | 34.5 | > 100 µM | > 100 | > 100 µM | > 100 | > 100 µM | > 60.7 | > 100 µM | > 100 | > 100 µM | > 100 µM | > 100 µM
CN(C)c1ccc(-c2cc(-c3cccc(NS(C)(=O)=O)c3)nc(N)c2C#N)cc1 | 0.0925 | 0.866 µM | 0.033 | 1.74 µM | 0.0372 µM | 48.5 µM | 0.0411 | 18.6 µM | 0.0362 | 11.8 µM | 0.0357 | 19.8 µM | 0.0563 | 44.6 µM | 0.0466 | 13.5 µM | 0.0327 | 13.3 µM | 0.0561 µM | 28.9 µM
